Experimental findings from patent US10072003B2, “Tetrahydronaphthyridine derivatives as mGluR2-negative allosteric modulators, compositions, and their use” (Merck Sharp & Dohme Corp., priority 2014, dated 2018) are described below.

recombinant human mGluR2, sequence (Q14416 19-872): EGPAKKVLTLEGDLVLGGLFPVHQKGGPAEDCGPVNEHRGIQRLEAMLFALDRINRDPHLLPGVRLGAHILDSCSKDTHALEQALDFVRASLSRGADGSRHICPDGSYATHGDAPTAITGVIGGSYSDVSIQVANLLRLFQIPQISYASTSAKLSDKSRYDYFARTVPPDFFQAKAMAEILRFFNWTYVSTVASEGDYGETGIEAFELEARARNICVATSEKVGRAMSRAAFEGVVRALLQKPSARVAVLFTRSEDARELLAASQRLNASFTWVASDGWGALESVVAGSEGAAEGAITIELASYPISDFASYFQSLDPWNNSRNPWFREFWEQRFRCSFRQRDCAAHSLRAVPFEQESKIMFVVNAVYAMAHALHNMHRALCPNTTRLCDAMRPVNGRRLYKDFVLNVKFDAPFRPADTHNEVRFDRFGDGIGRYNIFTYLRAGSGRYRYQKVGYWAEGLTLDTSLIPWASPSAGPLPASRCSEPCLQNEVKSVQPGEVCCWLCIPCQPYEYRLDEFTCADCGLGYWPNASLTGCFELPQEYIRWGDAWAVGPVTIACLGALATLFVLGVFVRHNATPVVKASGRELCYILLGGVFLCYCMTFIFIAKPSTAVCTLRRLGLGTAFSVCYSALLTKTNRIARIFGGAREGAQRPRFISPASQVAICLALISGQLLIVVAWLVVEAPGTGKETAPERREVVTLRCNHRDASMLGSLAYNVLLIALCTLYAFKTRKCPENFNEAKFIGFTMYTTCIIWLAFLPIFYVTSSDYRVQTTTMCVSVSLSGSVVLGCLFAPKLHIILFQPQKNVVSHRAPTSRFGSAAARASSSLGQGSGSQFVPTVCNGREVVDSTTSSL

The experiment addresses recombinant human mGluR2 (Homo sapiens (Human), UniProt Q14416). The experiment in a line: FLIPR Ca2+ mobilization antagonist assay in CHO dhfr- cells expressing human mGluR2 and Gα16. The class given is cell-based. Particulars: antagonist response after addition of 2,500 nM glutamate, Fluo-4 AM, FLIPR384. Put shortly: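 CHO dhfr- cells stably co-expressing human mGluR2 and Gα16, Fluo-4 AM loaded, preincubated with compound, then challenged with 2,500 nM glutamate; Ca2+ response read by FLIPR. Maximum calcium response vs concentration fitted to four-parameter logistic for IC50.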
Background: A change in cytosolic calcium serves as a functional read-out for many receptors and channels.
Usually IC50 stands for the concentration that gives 50% inhibition. As for `NC(=O)c1cc(-c2ccc(F)c(F)c2)c2c(n1)CN(Cc1ccnc(C(F)(F)F)c1)CC2` [Example 2-4, 4-(3,4-difluorophenyl)-7-{[2-(trifluoromethyl)pyridin-4-yl]methyl}-5,6,7,8-tetrahydro-1,7-naphthyridine-2-carboxamide], the concentration for half-maximal inhibition (IC50) was determined as 20.4 nM.

As for `NC(=O)c1cc(-c2cnn(C(F)F)c2)c2c(n1)CN(Cc1ccnc(C(F)(F)F)c1)CC2` [Example 2-5, 4-[1-(difluoromethyl)-1H-pyrazol-4-yl]-7-{[2-(trifluoromethyl)pyridin-4-yl]methyl}-5,6,7,8-tetrahydro-1,7-naphthyridine-2-carboxamide], the half-maximal inhibitory concentration (IC50) came to 30.3 nM.

`CS(=O)(=O)c1cccc(CN2CCc3c(-c4ccc(F)cc4)cc(C(N)=O)nc3C2)c1` [Example 2-6, 4-(4-fluorophenyl)-7-[3-(methylsulfonyl)benzyl]-5,6,7,8-tetrahydro-1,7-naphthyridine-2-carboxamide]: the half-inhibitory concentration (IC50) was determined as 23 nM.

For `Cc1nonc1CN1CCc2c(-c3ccc(F)cc3F)cc(C(N)=O)nc2C1` [Example 2-7, 4-(2,4-difluorophenyl)-7-[(4-methyl-1,2,5-oxadiazol-3-yl)methyl]-5,6,7,8-tetrahydro-1,7-naphthyridine-2-carboxamide], the concentration for half-maximal inhibition (IC50) was found to be 7.6 nM.

Take `NC(=O)c1cc(-c2cccc(C(F)(F)F)c2)c2c(n1)CN(Cc1ccnc(C(F)(F)F)c1)CC2` [Example 2-8, 4-[3-(trifluoromethyl)phenyl]-7-{[2-(trifluoromethyl)pyridin-4-yl]methyl}-5,6,7,8-tetrahydro-1,7-naphthyridine-2-carboxamide]: the IC50 turned out to be 188 nM.

Take `NC(=O)c1cc(-c2cnn(C(F)F)c2)c2c(n1)CN(Cc1ccnc(C3CC3)c1)CC2` [Example 2-9, 7-[(2-cyclopropylpyridin-4-yl)methyl]-4-[1-(difluoromethyl)-1H-pyrazol-4-yl]-5,6,7,8-tetrahydro-1,7-naphthyridine-2-carboxamide]: the concentration for half-maximal inhibition (IC50) was found to be 10.8 nM.

Take `COc1cc(F)ccc1-c1cc(C(N)=O)nc2c1CCN(Cc1ccnc(C3CC3)c1)C2` [Example 2-10, 7-[(2-cyclopropylpyridin-4-yl)methyl]-4-(4-fluoro-2-methoxyphenyl)-5,6,7,8-tetrahydro-1,7-naphthyridine-2-carboxamide]: the IC50 came out at 40.9 nM.

For `NC(=O)c1cc(-c2ccc(F)cc2Cl)c2c(n1)CN(Cc1ccnc(OC(F)F)c1)CC2` [Example 2-11, 4-(2-chloro-4-fluorophenyl)-7-{[2-(difluoromethoxy)pyridin-4-yl]methyl}-5,6,7,8-tetrahydro-1,7-naphthyridine-2-carboxamide], the IC50 came to 10.4 nM.

For the compound `NC(=O)c1cc(-c2cnn(C(F)F)c2)c2c(n1)CN(Cc1ccnc(OC(F)F)c1)CC2` [Example 2-12, 7-{[2-(difluoromethoxy)pyridin-4-yl]methyl}-4-[1-(difluoromethyl)-1H-pyrazol-4-yl]-5,6,7,8-tetrahydro-1,7-naphthyridine-2-carboxamide], the IC50 turned out to be 8.5 nM.

For `CS(=O)(=O)c1cccc(CN2CCc3c(-c4ccccc4F)cc(C(N)=O)nc3C2)c1` [Example 2-13, 4-(2-fluorophenyl)-7-[3-(methylsulfonyl)benzyl]-5,6,7,8-tetrahydro-1,7-naphthyridine-2-carboxamide], the half-maximal inhibitory concentration (IC50) turned out to be 47.8 nM.

`Cc1cc(-c2cc(C(N)=O)nc3c2CCN(Cc2ccnc(C(F)(F)F)c2)C3)ccn1` [Example 2-14, 4-(2-methylpyridin-4-yl)-7-{[2-(trifluoromethyl)pyridin-4-yl]methyl}-5,6,7,8-tetrahydro-1,7-naphthyridine-2-carboxamide]: the 50% inhibitory concentration (IC50) worked out at 153 nM.

For `NC(=O)c1cc(-c2cnc(C(F)F)s2)c2c(n1)CN(Cc1ccnc(OC(F)F)c1)CC2` [Example 2-15, 7-{[2-(difluoromethoxy)pyridin-4-yl]methyl}-4-[2-(difluoromethyl)-1,3-thiazol-5-yl]-5,6,7,8-tetrahydro-1,7-naphthyridine-2-carboxamide], the IC50 came to 45.2 nM.

Consider `Cc1cc(-c2cc(C(N)=O)nc3c2CCN(Cc2ccnc(OC(F)F)c2)C3)sn1` [Example 2-16, 7-{[2-(difluoromethoxy)pyridin-4-yl]methyl}-4-(3-methylisothiazol-5-yl)-5,6,7,8-tetrahydro-1,7-naphthyridine-2-carboxamide], for which the IC50 was 26.7 nM.

Regarding `NC(=O)c1cc(-c2ccc(F)cc2F)c2c(n1)CN(CC(=O)N1CCOCC1)CC2` [Example 2-17, 4-(2,4-difluorophenyl)-7-(2-morpholin-4-yl-2-oxoethyl)-5,6,7,8-tetrahydro-1,7-naphthyridine-2-carboxamide], the half-maximal inhibitory concentration (IC50) is 101 nM.

As to `Cn1nnnc1CN1CCc2c(-c3ccc(F)cc3F)cc(C(N)=O)nc2C1` [Example 2-18, 4-(2,4-difluorophenyl)-7-[(1-methyl-1H-tetrazol-5-yl)methyl]-5,6,7,8-tetrahydro-1,7-naphthyridine-2-carboxamide], the IC50 was determined as 49.5 nM.

`NC(=O)c1cc(-n2ccc(C(F)(F)F)n2)c2c(n1)CN(Cc1ccnc(C(F)(F)F)c1)CC2` [Example 2-19, 4-[3-(trifluoromethyl)-1H-pyrazol-1-yl]-7-{[2-(trifluoromethyl)pyridin-4-yl]methyl}-5,6,7,8-tetrahydro-1,7-naphthyridine-2-carboxamide]: the half-inhibitory concentration (IC50) is 61.6 nM.

`NC(=O)c1cc(-c2c(F)cc(Cl)cc2F)c2c(n1)CN(Cc1ccnn1C(F)F)CC2` [Example 2-20, 4-(4-chloro-2,6-difluorophenyl)-7-{[1-(difluoromethyl)-1H-pyrazol-5-yl]methyl}-5,6,7,8-tetrahydro-1,7-naphthyridine-2-carboxamide]: the half-maximal inhibitory concentration (IC50) came to 11 nM.

On to `Cn1nncc1CN1CCc2c(-c3c(F)cc(F)cc3F)cc(C(N)=O)nc2C1` [Example 2-21, 7-[(1-methyl-1H-1,2,3-triazol-5-yl)methyl]-4-(2,4,6-trifluorophenyl)-5,6,7,8-tetrahydro-1,7-naphthyridine-2-carboxamide], for which the half-maximal inhibitory concentration (IC50) is 33.7 nM.

In the case of `NC(=O)c1cc(-c2ccc(Cl)cn2)c2c(n1)CN(Cc1ccnn1C(F)F)CC2` [Example 2-22, 4-(5-chloropyridin-2-yl)-7-{[1-(difluoromethyl)-1H-pyrazol-5-yl]methyl}-5,6,7,8-tetrahydro-1,7-naphthyridine-2-carboxamide], the concentration for half-maximal inhibition (IC50) turned out to be 19.4 nM.

As for `NC(=O)c1cc(-c2ccc(F)cc2F)c2c(n1)CN(Cc1cc(C(F)(F)F)ncn1)CC2` [Example 2-23, 4-(2,4-difluorophenyl)-7-{[6-(trifluoromethyl)pyrimidin-4-yl]methyl}-5,6,7,8-tetrahydro-1,7-naphthyridine-2-carboxamide], the half-maximal inhibitory concentration (IC50) came to 5.7 nM.

`NC(=O)c1cc(-c2cc(C3CC3)ns2)c2c(n1)CN(Cc1ccnc(C3CC3)c1)CC2` [Example 2-24, 4-(3-cyclopropylisothiazol-5-yl)-7-[(2-cyclopropylpyridin-4-yl)methyl]-5,6,7,8-tetrahydro-1,7-naphthyridine-2-carboxamide]: the IC50 was 18.2 nM.

`N#Cc1cnn(-c2cc(C(N)=O)nc3c2CCN(Cc2ccnc(C(F)(F)F)c2)C3)c1` [Example 2-25, 4-(4-cyano-1H-pyrazol-1-yl)-7-{[2-(trifluoromethyl)pyridin-4-yl]methyl}-5,6,7,8-tetrahydro-1,7-naphthyridine-2-carboxamide]: the half-inhibitory concentration (IC50) was 40.9 nM.

Regarding `Cc1conc1CN1CCc2c(-c3ccc(F)cc3F)cc(C(N)=O)nc2C1` [Example 2-26, 4-(2,4-difluorophenyl)-7-[(4-methylisoxazol-3-yl)methyl]-5,6,7,8-tetrahydro-1,7-naphthyridine-2-carboxamide], the IC50 amounted to 13.1 nM.

For `NC(=O)c1cc(-c2cc(C3CC3)ns2)c2c(n1)CN(Cc1ccnc(OC(F)F)c1)CC2` [Example 2-27, 4-(3-cyclopropylisothiazol-5-yl)-7-{[2-(difluoromethoxy)pyridin-4-yl]methyl}-5,6,7,8-tetrahydro-1,7-naphthyridine-2-carboxamide], the 50% inhibitory concentration (IC50) is 23 nM.

With `CC1(C)CCC(c2cc(C(N)=O)nc3c2CCN(Cc2ccnc(C(F)(F)F)c2)C3)CC1` [Example 4-1, 4-(4,4-dimethylcyclohexyl)-7-((2-(trifluoromethyl)pyridin-4-yl)methyl)-5,6,7,8-tetrahydro-1,7-naphthyridine-2-carboxamide], the IC50 was 117 nM.

For the compound `NC(=O)c1cc(C2=CCC3(CC2)CC3)c2c(n1)CN(Cc1ccnc(C(F)(F)F)c1)CC2` [Example 4-2, 4-spiro[2.5]oct-5-en-6-yl-7-{[2-(trifluoromethyl)pyridin-4-yl]methyl}-5,6,7,8-tetrahydro-1,7-naphthyridine-2-carboxamide], the IC50 was found to be 49.7 nM.

On to `Cc1cn(-c2cc(C(N)=O)nc3c2CCN(Cc2ccnc(C(F)(F)F)c2)C3)cn1` [Example 5-1, 4-(4-methyl-1H-imidazol-1-yl)-7-((2-(trifluoromethyl)pyridin-4-yl)methyl)-5,6,7,8-tetrahydro-1,7-naphthyridine-2-carboxamide], for which the 50% inhibitory concentration (IC50) was determined as 115 nM.

As for `C[C@@H]1CN(c2cc(C(N)=O)nc3c2CCN(Cc2ccnc(C(F)(F)F)c2)C3)CCO1` [Example 5-2, (R)-4-(2-methylmorpholino)-7-((2-(trifluoromethyl)pyridin-4-yl)methyl)-5,6,7,8-tetrahydro-1,7-naphthyridine-2-carboxamide], the IC50 worked out at 79.1 nM.

Turning to `COc1cc(CN2CCc3c(N4CCC(F)(F)CC4)cc(C(N)=O)nc3C2)ccn1` [Example 5-3, 4-(4,4-difluoropiperidin-1-yl)-7-[(2-methoxypyridin-4-yl)methyl]-5,6,7,8-tetrahydro-1,7-naphthyridine-2-carboxamide], the IC50 came to 41 nM.

For the compound `NC(=O)c1cc(N2CCCC3(CC3)C2)c2c(n1)CN(Cc1ccnc(C(F)(F)F)c1)CC2` [Example 5-4, 4-(5-azaspiro[2.5]oct-5-yl)-7-{[2-(trifluoromethyl)pyridin-4-yl]methyl}-5,6,7,8-tetrahydro-1,7-naphthyridine-2-carboxamide], the concentration for half-maximal inhibition (IC50) worked out at 29 nM.
